Reference: patent publication US11452682B2, “Toothpaste composition for alleviating dentin hyperesthesia” (HYSENSBIO, priority 2018, dated 2022)

Tested on: DSPP gene
Assay: mRNA level of DSPP gene in MDPC-23 cells by RT-PCR and real-time PCR
Format: cell-based, mouse
Conditions: cultured 48 hours with peptide, relative ratio to mRNA level in untreated control, Gapdh internal control, repeated three times
Description: The MDPC-23 cells cultured in Example 2-1 were treated with the peptides of each group synthesized in Example 1, then cultured for 48 hours. The mRNA level of the DSPP, an odontoblast differentiation marker gene, expressed in the MDPC-23 cells were measured, and the measured mRNA level of each DSPP gene was converted into a relative ratio to the mRNA level of the DSPP gene measured in control (Tables 13 to 24). In addition, the average value of the mRNA level of the DSPP gene measured according to the peptides of each group was compared (FIG. 1B). At this time, as a control, MDPC-23 cells that were not treated with the peptide promoting differentiation of odontoblast were used.
The expression level of the DSPP gene was measured through RT-PCR and real-time PCR analysis: Specifically, total RNA was extracted from the MDPC-23 cells using TRIzol reagent. 2 μg of the total RNA, 1 μl of reverse transcriptase, and 0.5 μg of oligo (oligo; dT) were used to synthesize cDNA. The synthesized cDNA was used in a real-time polymerase chain reaction. The real-time polymerase chain reaction was performed on an ABI PRISM 7500 sequence detection system (Applied Biosystems) and an SYBR GREEN PCR Master Mix (Takara, Japan). The real-time polymerase chain reaction was performed under conditions of 94° C., 1 min; 95° C., 15 sec; 60° C., 34 sec for 40 cycles. Results were analyzed by a comparative cycle threshold (CT) method. At this time, the Gapdh gene was used as the internal control group, and the measured value was repeated three times. The mean value and standard deviation value thereof were used.

| Substance | mRNA level of Dspp gene Mean |
| --- | --- |
| 89 (KYKQRKKSYK; Novel peptide) [compound 89] | 4.211 |
| 90 (KYKQRKRSYK; Novel peptide) [compound 90] | 4.811 |
| 91 (KYKQRRKSYK; Novel peptide) [compound 91] | 4.362 |
| 92 (KYKQRRRSYK; Novel peptide) [compound 92] | 4.211 |
| 93 (KYKQKKKSYK; Novel peptide) [compound 93] | 4.525 |
| 94 (KYKQKRKSYK; Novel peptide) [compound 94] | 3.836 |
| 95 (KYKQKKRSYK; Novel peptide) [compound 95] | 4.62 |
| 96 (KYKQKRRSYK; Novel peptide) [compound 96] | 5.211 |
